The test system of this assay is L. donovani promastigotes (AG83 strain). In words: LDH cytotoxicity assay on promastigotes, AG83 strain. It counts as cell-based, Leishmania donovani. Particulars: Leishmania donovani; Table 1; activity against promastigotes. As to the method: Promastigote forms of L. donovani (MHOM/IN/1983/AG83) were cultured at 26°C in M199 (GIBCO, India), pH 7.4, supplemented with 10% (v/v) inactivated fetal bovine serum (FBS, GIBCO, India) and 0.02 mg/ml gentamycin (Life Technologies, USA). The clinical isolate of PKDL, BS12, was obtained as a gift from Prof. Mitali Chatterjee [Department of Pharmacology, Institute of Postgraduate Medical Education and Research (IPGMER), Kolkata, India]. BS12 was routinely cultured at 22°C in M199 (GIBCO, India) with 100 U/ml penicillin-streptomycin (Gibco, Invitrogen, Thermo Fisher Scientific, NY, USA), 8 μM hemin (4 mM stock made in 50% triethanolamine) (Sigma, USA), 25 mM 4-(2-hydroxyethyl)-1-piperazineethanesulfonic acid (HEPES), supplemented with 10% heat-inactivated FBS (GIBCO, India). Cultures were maintained between 10^6 and 10^7 cells/ml for continuous exponential growth. In addition, 1 × 10^6 cells/ml parasite count was constantly maintained for all the experiments ([Ramu et al., 2017]).
All the compounds were dissolved in dimethyl sulfoxide (DMSO) (Sigma-Aldrich) for 1 mM stock solution and were screened against promastigotes at a concentration of 5 µM. For Glycosides (Gly) 2, 6, and 8, a range of concentrations starting from 100 nM to 100 µM were screened against promastigote forms of parasite and mammalian cells. Parasites (AG83 and PKDL strain) treated with amphotericin B (3 µg/ml) (Sigma-Aldrich) were maintained as the positive control.
AG83 strain of L. donovani were exposed to various Gly compound concentrations (100 nM–100 µM) in a 96-well microtiter plate (100 µl/well volume) and were incubated for 72 h at 26°C. Finally, lactate dehydrogenase (LDH) cytotoxic assay was performed as per standard protocol (CytoTox 96 Non-Radioactive Cytotoxicity Assay-Promega, USA). The percent cytotoxicity of test compounds was calculated by normalizing with amphotericin B as 100%. Further percentage growth inhibition was calculated using the formula:
% Growth Inhibition = Gly treated LDH activity- Spontaneous LDH activity
/Maximum LDH activity- Spontaneous LDH activity * 100
As per the formula, the spontaneous LDH Activity = activity of the untreated cells and the maximum LDH activity = activity of the amphotericin B-treated cells. IC50 value for Gly2, 6, and 8 treated was generated for AG83 and PKDL strain of L. donovani using sigmoidal dose–response model with nonlinear regression tool ([Ramu et al., 2017]).

The structures appear in SMILES notation.

As usually defined, the IC50 is the point on the concentration scale where inhibition reaches its midpoint. Read a low IC50 as inhibition by little substance.

In the case of `CC(C)CCOC1O[C@H](CO)[C@@H](O)[C@H](O)[C@H]1O` (stereo partly shown) [Gly2], the IC50 came out at 1130 nM.

These data come from PMC9115111, “Metalloprotease Gp63-Targeting Novel Glycoside Exhibits Potential Antileishmanial Activity” (Frontiers in Cellular and Infection Microbiology, 2022).
